Measured values as given in patent US7851437B2, “Drug conjugates and their use for treating cancer, an autoimmune disease or an infectious disease” (Seattle Genetics Inc., priority 2002, dated 2010).
*1 amine or outer side, *2 acyl side, *3 side chain or, on linkers, in order; H or OH if unused. Where a SMILES comes first, the peptide text is derived from it. [ ]: non-standard residue; d: D form. The star is where a group is joined. Dolaproine = CO[C@@H]([C@@H]1CCCN1)[C@@H](C)C(=O)O; Phenylenediamine(1,4) = c1cc(N[*:2])ccc1N[*:1]; Dil = CC[C@H](C)[C@H](NC)[C@@H](CC(=O)O)OC; NMe2Val = CC(C)[C@@H](C(=O)*)N(C)C; X1 = C[C@@H](N*)[C@@H](O)c1ccccc1; NMeV = CN[C@H](C(=O)O)C(C)C

Test system: H3396 human breast carcinoma cells (cBR96 antigen positive, cAC10 antigen negative)
Experiment: In vitro cytotoxicity, Alamar Blue assay, H3396 cells
Type: cell-based
Conditions: exposure for 1 hour
Text: The cell lines used were H3396 human breast carcinoma (cBR96 antigen positive, cAC10 antigen negative), HCT-116 human colorectal carcinoma (cBR96 and cAC10 antigen negative), and Karpas human anaplastic large cell lymphoma (ALCL) (cBR96 antigen negative, cAC10 antigen positive). These cell lines are available from ATCC. CD30-positive Hodgkin's Disease (HD) cell line L540 and the ALCL cell line Karpas 299 were obtained from the Deutsche Sammlung von Mikroorganism and Zellkulturen GmbH (Braunschweig, Germany). L540cy, a derivative of the HD line L540 adapted to xenograft growth, was provided by Dr. Phil Thorpe (U of Texas Southwestern Medical Center, Dallas, Tex.). Cell lines were grown in RPMI-1640 media (Life Technologies Inc., Gaithersburg, Md.) supplemented with 10% fetal bovine serum.H3396 cells in RPMI containing 10% fetal bovine serum (referred to as medium) were plated in 96-well plates at approximately 3,000-10,000 cells/well and allowed to adhere overnight. The non-adherent Karpas cell line was plated out at approximately 10,000 cells/well at the initiation of the assay. Various concentrations of illustrative Compounds of the Invention in medium were added in triplicate, and after the times indicated IN FIGS. 1-7, the medium was removed, and the cells were washed with fresh medium three times. After a 96 hour incubation period at 37° C., Alamar Blue was added and cell viability was determined 4 hours later as described by Ahmed S A, Gogal R M Jr, Walsh J E., J. Immunol. Methods, 170, 211-224, 1994.

[1] = concentrations between 0.01 mM and 1.0 mM

Row | SMILES | cytotoxicity (FIG. 1) [1] | cytotoxicity (FIG. 1) (concentrations of up to 0.01 mM)
1 | CC[C@H](C)[C@@H]([C@@H](CC(=O)N1CCC[C@H]1[C@H](OC)[C@@H](C)C(=O)N[C@@H](Cc1ccccc1)C(=O)Nc1ccc(N)cc1)OC)N(C)C(=O)[C@@H](NC(=O)[C@H](C(C)C)N(C)C)C(C)C [Compound 53] (NMe2Val-V[Dil][Dolaproine]F-{Phenylenediamine(1,4)}) | substantially equal cytotoxicity | more cytotoxic than Compound 49
2 | CC[C@H](C)[C@@H]([C@@H](CC(=O)N1CCC[C@H]1[C@H](OC)[C@@H](C)C(=O)N[C@H](C)[C@@H](O)c1ccccc1)OC)N(C)C(=O)[C@@H](NC(=O)[C@@H](NC)C(C)C)C(C)C [Compound 49] (H-[NMeV]V[Dil][Dolaproine]-X1) | substantially equal cytotoxicity | 
